Test results from paper PMC6269071, “New Quinoxaline Derivatives as Potential MT1 and MT2 Receptor Ligands” (Molecules, 2012).

Assays:
[1] = biological target: T1, human melatonin MT2 receptor (Homo sapiens, UniProt P49286); assay: 2-[125I]Iodomelatonin competitive binding, MT2; settings: for Ki: 2-[125I]Iodomelatonin radioligand, membranes of HEK or CHO cells, mean of at least three experiments, read-out: MT2 Ki (µM) ± SEM
T1 construct: expressed in transfected cells; host or cells: HEK or CHO cells, stably transfected; membrane preparations
T1 sequence (P49286 1-362): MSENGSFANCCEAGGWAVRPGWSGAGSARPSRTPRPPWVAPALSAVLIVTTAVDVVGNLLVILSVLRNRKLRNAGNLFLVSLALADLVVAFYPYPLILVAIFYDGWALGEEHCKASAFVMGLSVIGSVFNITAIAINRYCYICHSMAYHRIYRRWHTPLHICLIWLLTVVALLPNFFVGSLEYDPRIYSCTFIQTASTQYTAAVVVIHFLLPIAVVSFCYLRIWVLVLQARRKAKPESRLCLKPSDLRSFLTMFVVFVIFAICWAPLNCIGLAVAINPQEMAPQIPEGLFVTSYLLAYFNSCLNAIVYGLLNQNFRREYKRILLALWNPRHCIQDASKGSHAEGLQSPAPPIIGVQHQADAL
Procedure: (§1) The binding affinity of the newly synthesized quinoxalines for MT1 and MT2 receptors was tested through competitive binding experiments using 2-[^125I]Iodomelatonin as radioligand.
(§2) Grown at confluence at 37 °C ([…]/5% CO2), they were harvested in PBS containing EDTA 2 mM and centrifuged at 1,000 g for 5 min (4 °C). The resulting pellet was suspended in Tris 5 mM (pH 7.5), containing EDTA 2 mM and homogenized using a Kinematica polytron. The homogenate was then centrifuged (95,000 g, 30 min, 4 °C) and the resulting pellet suspended in 75 mM Tris (pH 7.5), 12.5 mM MgCl2 and 2 mM EDTA. Aliquots of membrane preparations were stored at −80 °C until use.
(§3) 2-[^125I]Iodomelatonin binding assay conditions are essentially as previously described. Briefly, binding is initiated by the addition of membrane preparations from stable transfected HEK or CHO cells diluted in binding buffer (50 mM Tris-HCl buffer, pH 7.4, containing 5 mM MgCl2) to 2-[^125I]Iodomelatonin (25 or 200 pM for MT1 and MT2 receptors, respectively, expressed in HEK cells or 20 pM for MT1 and MT2 receptors expressed in CHO cells) and the tested drug. […] After 120 min of incubation at 37 °C, the reaction was stopped by rapid filtration through GF/B filters presoaked in 0.5% (v/v) polyethylenimine. Filters were washed three times with 1 mL of ice-cold 50 mM Tris-HCl buffer, pH 7.4. Data from dose-response curves (seven concentrations in duplicate) were analyzed using the program PRISM (Graph Pad Software Inc., San Diego, CA, USA) to yield IC50 (inhibitory concentration 50). Results were expressed as Ki using the Cheng and Prusoff equation: Ki = IC50/[1 + (L/KD)], where [L] is the concentration of radioligand used in the assay and KD, the dissociation constant of the radioligand characterizing the membrane preparation.

[2] = biological target: T2, human melatonin MT1 receptor (Homo sapiens, UniProt P48039); assay: 2-[125I]Iodomelatonin competitive binding, MT1; settings: 2-[125I]Iodomelatonin radioligand; membranes of HEK or CHO cells; mean of at least three experiments; read-out: MT1 Ki (µM) ± SEM
T2 construct: expressed in transfected cells; host or cells: HEK or CHO cells, stably transfected; membrane preparations
T2 sequence (P48039 whole entry): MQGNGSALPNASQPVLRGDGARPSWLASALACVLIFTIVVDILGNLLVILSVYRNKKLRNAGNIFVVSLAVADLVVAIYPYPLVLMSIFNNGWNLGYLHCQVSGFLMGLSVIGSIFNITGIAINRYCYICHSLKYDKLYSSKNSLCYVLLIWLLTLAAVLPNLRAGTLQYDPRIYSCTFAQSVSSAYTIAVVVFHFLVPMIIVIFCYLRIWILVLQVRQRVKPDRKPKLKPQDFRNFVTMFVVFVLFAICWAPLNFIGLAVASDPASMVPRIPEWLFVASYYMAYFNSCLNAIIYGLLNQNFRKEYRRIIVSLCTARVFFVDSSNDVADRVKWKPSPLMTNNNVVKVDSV
Procedure: as §1, §2, §3

[3] = biological target: T3, MT2 receptor (CHO-MT2 membranes) (Homo sapiens, UniProt P49286); assay: [35S]GTPγS binding assay, MT2; assay type: biochemical; settings: for functional profile at MT2 / EC50: [35S]GTPγS binding; for EC50: CHO membranes, read-out: MT2 EC50 ± SEM
T3 construct: expressed in transfected cells; host or cells: CHO cells, transfected; membranes
T3 sequence (P49286 1-362): T1 sequence (P49286 1-362)
Procedure: as §2
[^35S]GTPγS binding assay was performed according to published methodology. Briefly, membranes from transfected CHO cells expressing MT1 and MT2 receptor subtypes and compounds were diluted in binding buffer (20 mM HEPES, pH 7.4, 100 mM NaCl, 3 μM GDP, 3 mM MgCl2, and 20 μg/mL saponin). Incubation was started by the addition of 0.2 nM [^35S]GTPγS to membranes (20 μg/mL) and drugs, and further followed for 1h at room temperature.

## CCCNC(=O)NCc1nc2ccccc2nc1OC [Compound 3g, 1-(3-Methoxyquinoxalin-2-ylmethyl)-3-propylurea]
[1]
  Ki: 0.44 µM
[2]
  Ki: > 1000 µM

## COc1ccc2ncc(CNC(=O)C(C)C)nc2c1 [Compound 10d, N-[(7-Methoxyquinoxalin-2-yl)methyl]isobutyramide]
[1]
  Ki: 0.16 µM
[2]
  Ki: 0.32 ± 0.04 µM

## COc1nc2ccccc2nc1CNC(=O)C(C)C [Compound 3d, N-(3-Methoxyquinoxalin-2-ylmethyl)-isobutyramide]
[1]
  Ki: 0.47 ± 0.02 µM
[2]
  Ki: 1.23 ± 0.32 µM

## COc1nc2ccc(NC(=O)NC(C)C)cc2nc1OC [Compound 6h, 1-(2,3-Dimethoxyquinoxalin-6-yl)-3-isopropylurea]
[1]
  Ki: > 1000 µM
[2]
  Ki: > 1000 µM

## COc1nc2ccccc2nc1CNC(=O)c1ccccc1 [Compound 3e, N-(3-Methoxy-quinoxalin-2-ylmethyl)-benzamide]
[1]
  Ki: > 1000 µM
[2]
  Ki: > 1000 µM

## COc1nc2ccc(NC(=O)Nc3ccccc3)cc2nc1OC [Compound 6i, 1-(2,3-Dimethoxyquinoxalin-6-yl)-3-phenylurea]
[1]
  Ki: > 1000 µM
[2]
  Ki: > 1000 µM

## CCCC(=O)NCc1cnc2ccc(OC)cc2n1 [Compound 10c, N-[(7-Methoxyquinoxalin-2-yl)methyl]butyramide]
[1]
  Ki: 0.1 ± 0.01 µM
[2]
  Ki: 0.21 ± 0.11 µM

## COc1nc2ccccc2nc1CNC(=O)NC(C)C [Compound 3h, 1-Isopropyl-3-(3-methoxyquinoxalin-2-ylmethyl)urea]
[1]
  Ki: > 1000 µM
[2]
  Ki: > 1000 µM

## COc1nc2ccccc2nc1CNC(C)=O [Compound 3a, N-(3-Methoxyquinoxalin-2-ylmethyl)-acetamide]
[1]
  Ki: 0.88 ± 0.3 µM
[2]
  Ki: 2.98 ± 0.36 µM

## COc1nc2ccc(NC(C)=O)cc2nc1OC [Compound 6a, N-(2,3-Dimethoxyquinoxalin-6-yl)acetamide]
[3]
  functional profile at MT2: antagonist
  EC50: > 10 µM
[1]
  Ki: 0.08 µM
[1]; ratio of binding affinities MT1 vs MT2
  MT2/MT1 selectivity ratio: 250
[2]
  Ki: 20 ± 1.82 µM

## CCCC(=O)NCc1nc2ccccc2nc1OC [Compound 3c, N-(3-Methoxyquinoxalin-2-ylmethyl)-butyramide]
[1]
  Ki: 1.1 ± 0.03 µM
[2]
  Ki: 0.75 ± 0.36 µM

## CCNC(=O)NCc1nc2ccccc2nc1OC [Compound 3f, Ethyl-3-(3-methoxyquinoxalin-2-ylmethyl)urea]
[1]
  Ki: 0.4 ± 0.13 µM
[2]
  Ki: > 1000 µM

## CCCC(=O)Nc1ccc2nc(OC)c(OC)nc2c1 [Compound 6c, N-(2,3-Dimethoxyquinoxalin-6-yl)butyramide]
[3]
  functional profile at MT2: full agonist
  EC50: 1.3 ± 0.26 µM
[3]; read-out: MT2 Emax ± SEM (%)
  Emax: 84 ± 9.5%
[1]
  Ki: 1.35 ± 0.31 µM
[2]
  Ki: 11.5 ± 2.8 µM

## CCNC(=O)Nc1ccc2nc(OC)c(OC)nc2c1 [Compound 6f, 1-(2,3-Dimethoxyquinoxalin-6-yl)-3-ethylurea]
[1]
  Ki: 28.8 µM
[2]
  Ki: 3.41 ± 1.89 µM

## COc1ccc2ncc(CNC(C)=O)nc2c1 [Compound 10a, N-[(7-Methoxyquinoxalin-2-yl)methyl]acetamide]
[1]
  Ki: > 1000 µM
[2]
  Ki: > 1000 µM

## CCC(=O)NCc1cnc2ccc(OC)cc2n1 [Compound 10b, N-[(7-Methoxyquinoxalin-2-yl)methyl]propionamide]
[1]
  Ki: 0.34 ± 0.15 µM
[2]
  Ki: > 1000 µM

## COc1nc2ccc(NC(=O)c3ccccc3)cc2nc1OC [Compound 6e, N-(2,3-Dimethoxyquinoxalin-6-yl)benzamide]
[1]
  Ki: > 1000 µM
[2]
  Ki: > 1000 µM

## CCC(=O)NCc1nc2ccccc2nc1OC [Compound 3b, N-(3-Methoxyquinoxalin-2-ylmethyl)-propionamide]
[1]
  Ki: 0.66 ± 0.01 µM
[2]
  Ki: 2.6 ± 0.23 µM

## COc1nc2ccc(NC(=O)C(C)C)cc2nc1OC [Compound 6d, N-(2,3-Dimethoxyquinoxalin-6-yl)isobutyramide]
[1]
  Ki: 10.5 ± 2.96 µM
[2]
  Ki: 3.4 ± 1.37 µM

## CCC(=O)Nc1ccc2nc(OC)c(OC)nc2c1 [Compound 6b, N-(2,3-Dimethoxyquinoxalin-6-yl)propionamide]
[1]
  Ki: 4.36 ± 1.22 µM
[2]
  Ki: 17.6 ± 7.81 µM

## COc1ccc2ncc(CNC(=O)c3ccccc3)nc2c1 [Compound 10e, N-[(7-Methoxyquinoxalin-2-yl)methyl]benzamide]
[1]
  Ki: > 1000 µM
[2]
  Ki: > 1000 µM

## COc1nc2ccccc2nc1CNC(=O)Nc1ccccc1 [Compound 3i, 1-(3-Methoxyquinoxalin-2-ylmethyl)-3-phenyl-urea]
[1]
  Ki: > 1000 µM
[2]
  Ki: > 1000 µM

## CCCNC(=O)Nc1ccc2nc(OC)c(OC)nc2c1 [Compound 6g, 1-(2,3-Dimethoxyquinoxalin-6-yl)-3-propylurea]
[1]
  Ki: 0.489 ± 0.07 µM
[2]
  Ki: 1.63 ± 0.44 µM
